{"source": "patent US20250108023A1", "about": "“Products for Masking Bitterness” (The Third People's Hospital of Henan Province, priority 2023, published 2025)", "key": {"[1]": {"test": "Oral spray bitterness masking taste test by volunteers with Coptis chinensis standard bitter solution", "type": "in vivo, healthy volunteers", "design": "key to bitterness value after drug: bitterness value 0.5–5.5; 1 = none, 5 = unbearable; key to Reduction of bitterness: drop in bitterness value (0.5–5.5 scale) from initial", "details": "for Duration > / inhibition in vivo at 0.2 % / Reduction of bitterness / Reduction range: 0.2% solution in 60% ethanol as oral spray; for Duration >: retention time until bitterness rises; for inhibition in vivo at 0.2 %: Homo sapiens, read-out: Reduction range; for inhibition in vivo at 0.2 % / Reduction range: relative to original bitterness 4.0; for Reduction of bitterness: original bitterness average 4.0, average of 31 cases; for bitterness value after drug: initial bitterness 4.0, 16 cases", "protocol": "Purpose of the experiment: it is to screen out compounds that take effect within 5 seconds, last for 30-120 seconds, and it is expected, by using such kind of compounds, the taste of the drug cannot be felt during the duration (30-120 seconds) when taking the drug.\nPrinciple of the experiment: simulate the process of taking medicine and using the taste masking agents, first spray about 0.5 ml of oral spray on the throat (3 times), and after it takes effect quickly, taste 10 ml of bitter standard solution to screen drugs that can be used in advance and can mask the bitter taste.\n• 1: Volunteer screening. The research team strictly screened the recruited volunteers and finally selected healthy volunteers as subjects. They signed informed consent forms before the experiment; • 2: Standard bitterness sample preparation. The bitterness of the samples was divided into five levels, and each level was assigned a certain bitterness value range; • 3: The sensory standard was corrected by the oral taste evaluation method, that is, the sensory standard was corrected by comparing the taste evaluation of the volunteers with the established bitterness value of the reference sample group. Specific steps: when the volunteers are doing the oral tasting test, the reference solutions of various concentrations are placed in the tasting cups, and the volunteers hold one of the solutions in their mouths, time it, and rinse their mouths by using the solution so that the bitter taste perception area at the root and sides of the tongue can fully feel the bitter taste of the drug. […] Then dilute all the selected taste masking drugs, prepare the solution, take 10 ml and put it into the spray bottle, spray it into the mouth 3 times, stay for 5 seconds, drink 10 ml of standard bitterness solution, feel and record the bitterness value, keep the standard bitterness solution in the mouth until the bitterness rises, and record the retention time. • 5: Quality control. […] Since the experimental objects are biological samples and there are individual differences between different subjects, there may be individual outliers in the experimental test data. The Grubbs test method was used to exclude outliers in the data, and then the experimental data were plotted in tables and curves for data analysis.\nIt is necessary to process the experimental data. Specifically, the Grubbs test method was used to perform a circular test and elimination of outliers on the data, and a bilateral test was used to eliminate outliers in the oral test. Considering the characteristics of biological samples, the detection level was selected as 0.1 and the elimination level was selected as 0.05 in this experiment.\nThe experimental medicinal material processing method mentioned in the above technical scheme is as follows: Preparation of bitter standard solution, use 10 g of Coptis chinensis powder, add 100 ml of pure water above 90 degrees, stir, let stand for 20 minutes, take the supernatant for use, determine the standard bitterness of 4.0 degrees by oral tasting, dilute 5 times, determine the standard bitterness of 2.0 degrees, dilute 2.0 degrees again 5 times, determine the standard bitterness of 0.5 degrees. Compare with the bitterness scoring table, (level 1 means “no bitterness or almost no bitterness”, the bitterness value is 0.5˜1.5; level 2 means “slightly bitter”, the bitterness value is 1.5˜2.5; level 3 means “bitter but acceptable”, the bitterness value is 2.5˜3.5; level 4 means “very bitter, but still tolerable”, the bitterness value is 3.5˜4.5; level 5 means “unbearable bitterness”, the bitterness value is 4.5˜5.5). Adjust the judgment and cognition of bitterness.\nThe standard bitterness solution used in this experiment to verify the experimental effect is a 4.0 degree bitterness solution of Coptis chinensis prepared according to the above method."}, "[2]": {"test": "Broad-spectrum taste masking test on decoctions of extremely bitter Chinese herbal medicine slices", "type": "in vivo, healthy volunteers", "design": "key: reduction in bitterness degrees on a 5-degree graduation scale", "details": "0.1% taste masking agent in 40% ethanol", "protocol": "According to the standard of decocting 100 ml of liquid from 10 g of dry Chinese herbal medicine slices (decoction method: use a stainless steel container, and keep for 20 minutes after boiling), from 300 commonly used Chinese herbal medicine slices, combined with the Chinese Pharmacopoeia, more than 20 Chinese herbal medicines with bitter or extremely bitter properties written in the pharmacopoeia were selected, including Bletilla striata, Cortex qin, Stephania tetrandra, Apricot kernel, Belamcanda chinensis, Angelica dahurica, Lotus seed heart, Toosendan fruit, Andrographis paniculata, Sophora flavescens, Coptis chinensis, Gentiana scabra, Forsythia suspensa, Sophora japonica, Phellodendron amurense, Scutellaria baicalensis, Platycodon grandiflorum, Notopterygium wilfordii, Saposhnikovia divaricata, Perilla frutescens, Zanthoxylum bungeana, Osmanthus fragrans, Sophora flavescens, and Chrysanthemum officinale, totally 24 kinds of Chinese herbal medicines.\nFinally, through the 5-degree graduation method, 2 species with a bitterness higher than 3.5 (moderate bitterness) and 7 species with a bitterness higher than 5 degrees (highly bitter, extremely bitter, accompanied by nausea) were screened out, a total of 9 species (Angelica pubescens, Lotus Seed Heart, Toosendan, Andrographis paniculata, Sophora flavescens, Coptis chinensis, Gentiana scabra, Forsythia suspensa, Sophora japonica) are selected as bitterness representatives to participate in the bitterness masking experiment. (Note: The bitterness of Coptis chinensis slices can reach 5.2 after 20 minutes of water decoction. The reference standard solution is 90-degree water brewing Coptis chinensis powder, it is automatically cooled to obtain a solution with a bitter taste of 4.0. Because Coptis chinensis has been used as a standard bitter liquid, it is no longer used).\nThe experimental method is the same as the previous part."}, "[3]": {"details": "concentration 0.001% in 60% ethanol"}, "[4]": {"details": "concentration 0.005% in 60% ethanol"}, "[5]": {"details": "concentration 0.02% in 60% ethanol"}, "[6]": {"details": "concentration 0.10% in 60% ethanol"}, "[7]": {"details": "concentration 0.50% in 60% ethanol"}}, "data": [{"compound": "CCCN(CCC)S(=O)(=O)c1ccc(C(=O)O)cc1", "note": "[Probenecid, reference compound]", "values": [{"measurement": "Duration >", "setting": "[1]", "value": "> 30", "unit": "s"}, {"measurement": "inhibition in vivo at 0.2 %", "setting": "[1]", "value": 12.5, "unit": "%"}]}, {"compound": "COc1cc(C=O)cc(O)c1O", "note": "[Hydroxyvanillin]", "values": [{"measurement": "Reduction of bitterness", "setting": "[1]", "value": 0}, {"measurement": "Reduction range", "setting": "[1]", "value": 0.00, "unit": "%"}]}, {"compound": "CC1(C)C2CCC1(C)C(O)C2", "note": "(stereo not drawn) [Borneolum, 2-borneol]", "values": [{"measurement": "Duration >", "setting": "[1]", "value": "> 10", "unit": "s"}, {"measurement": "inhibition in vivo at 0.2 %", "setting": "[1]", "value": 52.5, "unit": "%"}, {"measurement": "bitterness value after drug", "setting": "[1]; [3]", "value": 4}, {"measurement": "bitterness value after drug", "setting": "[1]; [4]", "value": 3.4}, {"measurement": "bitterness value after drug", "setting": "[1]; [5]", "value": 2.6}, {"measurement": "bitterness value after drug", "setting": "[1]; [6]", "value": 1.9}, {"measurement": "bitterness value after drug", "setting": "[1]; [7]", "value": 2.2}]}, {"compound": "O=C(/C=C/C=C/c1ccc2c(c1)OCO2)N1CCCCC1", "note": "[Piperine, (E,E)-1-[5-(1,3-benzodioxol-5-yl)-1-oxo-2,4-pentadieny1]-piperidine]", "values": [{"measurement": "Duration >", "setting": "[1]", "value": "> 30", "unit": "s"}, {"measurement": "inhibition in vivo at 0.2 %", "setting": "[1]", "value": 52.5, "unit": "%"}, {"measurement": "bitterness value after drug", "setting": "[1]; [3]", "value": 3.9}, {"measurement": "bitterness value after drug", "setting": "[1]; [4]", "value": 2.5}, {"measurement": "bitterness value after drug", "setting": "[1]; [5]", "value": 2.3}, {"measurement": "bitterness value after drug", "setting": "[1]; [6]", "value": 1.9}, {"measurement": "bitterness value after drug", "setting": "[1]; [7]", "value": 1.9}]}, {"compound": "COC(=O)[C@@H]1CC2=CC(=O)CC[C@]2(C)[C@@]23O[C@@H]2C[C@@]2(C)[C@@H](CC[C@@]24CCC(=O)O4)[C@H]13", "note": "[Eplerenone, reference compound]", "values": [{"measurement": "inhibition in vivo at 0.2 %", "setting": "[1]", "value": 0, "unit": "%"}]}, {"compound": "O=S(=O)([O-])[O-].[Mg+2]", "note": "[Magnesium sulfate]", "values": [{"measurement": "Reduction of bitterness", "setting": "[1]", "value": 1.5}, {"measurement": "Reduction range", "setting": "[1]", "value": 37.50, "unit": "%"}, {"measurement": "Duration >", "setting": "[1]", "value": "> 20", "unit": "s"}, {"measurement": "bitterness value after drug", "setting": "[1]; [3]", "value": 3.5}, {"measurement": "bitterness value after drug", "setting": "[1]; [4]", "value": 3.2}, {"measurement": "bitterness value after drug", "setting": "[1]; [5]", "value": 2.8}, {"measurement": "bitterness value after drug", "setting": "[1]; [6]", "value": 2.5}, {"measurement": "bitterness value after drug", "setting": "[1]; [7]", "value": 2.3}]}, {"compound": "trans-caryophyllene", "values": [{"measurement": "Reduction of bitterness", "setting": "[1]", "value": 2.3}, {"measurement": "Reduction range", "setting": "[1]", "value": 57.50, "unit": "%"}, {"measurement": "Duration >", "setting": "[1]", "value": "> 30", "unit": "s"}, {"measurement": "bitterness value after drug", "setting": "[1]; [3]", "value": 3.8}, {"measurement": "bitterness value after drug", "setting": "[1]; [4]", "value": 2.6}, {"measurement": "bitterness value after drug", "setting": "[1]; [5]", "value": 1.9}, {"measurement": "bitterness value after drug", "setting": "[1]; [6]", "value": 1.7}, {"measurement": "bitterness value after drug", "setting": "[1]; [7]", "value": 1.8}]}, {"compound": "CCOC(=O)C1=C(COCCN)NC(C)=C(C(=O)OC)C1c1ccccc1Cl", "note": "(stereo not drawn) [Amlodipine, reference compound]", "values": [{"measurement": "inhibition in vivo at 0.2 %", "setting": "[1]", "value": 0, "unit": "%"}]}, {"compound": "COC(=O)C1=C(C)NC(C)=C(C(=O)OC)C1c1ccccc1[N+](=O)[O-]", "note": "[Nifedipine, reference compound]", "values": [{"measurement": "inhibition in vivo at 0.2 %", "setting": "[1]", "value": 0, "unit": "%"}]}, {"compound": "CCCCCC1=C(C)CCC1=O", "note": "[Dihydrojasmone]", "values": [{"measurement": "Reduction of bitterness", "setting": "[1]", "value": 0}, {"measurement": "Reduction range", "setting": "[1]", "value": 0.00, "unit": "%"}]}, {"compound": "CC1CC(O)CC(C)(C)C1", "note": "(stereo not drawn) [Trimethylcyclohexanol]", "values": [{"measurement": "Reduction of bitterness", "setting": "[1]", "value": 0}, {"measurement": "Reduction range", "setting": "[1]", "value": 0.00, "unit": "%"}]}, {"compound": "CCNC(=O)[C@@H]1C[C@H](C)CC[C@H]1C(C)C", "note": "[Menthamide, N-ethyl-L-menthyl carboxamide]", "values": [{"measurement": "Reduction of bitterness", "setting": "[1]", "value": 2.5}, {"measurement": "Reduction range", "setting": "[1]", "value": 62.50, "unit": "%"}, {"measurement": "Duration >", "setting": "[1]", "value": "> 120", "unit": "s"}, {"measurement": "bitterness value after drug", "setting": "[1]; [3]", "value": 2.4}, {"measurement": "bitterness value after drug", "setting": "[1]; [4]", "value": 1.8}, {"measurement": "bitterness value after drug", "setting": "[1]; [5]", "value": 1.5}, {"measurement": "bitterness value after drug", "setting": "[1]; [6]", "value": 1.5}, {"measurement": "bitterness value after drug", "setting": "[1]; [7]", "value": 1.6}, {"measurement": "Bitterness reduction value", "setting": "[2]; Andrographis paniculata, original bitterness 5", "value": 0.5}, {"measurement": "Bitterness reduction value", "setting": "[2]; Forsythia suspensa, original bitterness 3", "value": 1.7}, {"measurement": "Bitterness reduction value", "setting": "[2]; Gentiana, original bitterness 5", "value": 1}, {"measurement": "Bitterness reduction value", "setting": "[2]; Lotus seed heart, original bitterness 5", "value": 2.8}, {"measurement": "Bitterness reduction value", "setting": "[2]; Puhuo, original bitterness 5", "value": 2.1}, {"measurement": "Bitterness reduction value", "setting": "[2]; Sophora flavescens, original bitterness 5", "value": 1}, {"measurement": "Bitterness reduction value", "setting": "[2]; Toulianzi, original bitterness 5", "value": 1}]}, {"compound": "CNC(=O)C(C)(C(C)C)C(C)C", "note": "[Cooling agent WS-23, N,2,3-trimethyl-2-isopropylbutyramide]", "values": [{"measurement": "Duration >", "setting": "[1]", "value": "> 30", "unit": "s"}, {"measurement": "inhibition in vivo at 0.2 %", "setting": "[1]", "value": 50, "unit": "%"}, {"measurement": "bitterness value after drug", "setting": "[1]; [3]", "value": 2.5}, {"measurement": "bitterness value after drug", "setting": "[1]; [4]", "value": 2.4}, {"measurement": "bitterness value after drug", "setting": "[1]; [5]", "value": 2.1}, {"measurement": "bitterness value after drug", "setting": "[1]; [6]", "value": 2}, {"measurement": "bitterness value after drug", "setting": "[1]; [7]", "value": 2.1}]}]}
